Article PMC3783652 (ACS chemical biology, 2013)
Marks after values point to notes of the source that are not given here. No end group written: not given here.

Key:
[1] = target: CXCL12WT self-association; conditions: in 100 mM sodium phosphate; cited from earlier work
CXCL12_1 = CXCL12_1 (Homo sapiens, UniProt P48061, I79C/L76C); experiment: 2D 1H-15N HSQC NMR titration of CXCR4 peptides into CXCL12_1; assay type: binding; conditions: ΔG = −RT ln Kd @ 298 K
CXCL12_2 = CXCL12_2 (Homo sapiens, UniProt P48061, A86C/L57C); experiment: 2D 1H-15N HSQC NMR titration of CXCR4 peptides into CXCL12_2; assay type: binding; conditions: ΔG = −RT ln Kd @ 298 K
CXCL12WT = CXCL12WT (Homo sapiens, UniProt P48061); conditions: ΔG = −RT ln Kd @ 298 K, calculated from Veldkamp et al.; cited from earlier work

Substance	Kd of self-association [1]	ΔG (CXCL12_1)	ΔG (CXCL12_2)	ΔG (CXCL12WT)
CXCL12WT: wild type chemokine CXCL12 (stromal cell-derived factor-1/SDF-1)	140 µM			
GMMEGISIYTSDNYTEEMGSGDYDSMKEPCFREENANFNK [CXCR4_1–38]		-31.1 kJ/mol	-34.5 kJ/mol	−7.29 ^* kcal mol^−1
